Values belong to the compound of their own block, whether it stands above or below them.
Columns and labels:
[1] = target: Relaxin-3 receptor 2 (Homo sapiens, UniProt Q8TDU9); assay: Negative allosteric modulation of human RXFP4 receptor expressed in CHO-K1 cells assessed as cAMP accumulation incubated for 30 mins by TR-FRET assay; type: functional, cell-based
[2] = target: T1, Relaxin receptor 1 (Homo sapiens, UniProt Q9HBX9); assay: Negative allosteric modulation of human RXFP1 receptor expressed in CHO-K1 cells assessed as cAMP accumulation incubated for 30 mins by TR-FRET assay; type: functional, cell-based
T1 sequence (Q9HBX9 whole entry): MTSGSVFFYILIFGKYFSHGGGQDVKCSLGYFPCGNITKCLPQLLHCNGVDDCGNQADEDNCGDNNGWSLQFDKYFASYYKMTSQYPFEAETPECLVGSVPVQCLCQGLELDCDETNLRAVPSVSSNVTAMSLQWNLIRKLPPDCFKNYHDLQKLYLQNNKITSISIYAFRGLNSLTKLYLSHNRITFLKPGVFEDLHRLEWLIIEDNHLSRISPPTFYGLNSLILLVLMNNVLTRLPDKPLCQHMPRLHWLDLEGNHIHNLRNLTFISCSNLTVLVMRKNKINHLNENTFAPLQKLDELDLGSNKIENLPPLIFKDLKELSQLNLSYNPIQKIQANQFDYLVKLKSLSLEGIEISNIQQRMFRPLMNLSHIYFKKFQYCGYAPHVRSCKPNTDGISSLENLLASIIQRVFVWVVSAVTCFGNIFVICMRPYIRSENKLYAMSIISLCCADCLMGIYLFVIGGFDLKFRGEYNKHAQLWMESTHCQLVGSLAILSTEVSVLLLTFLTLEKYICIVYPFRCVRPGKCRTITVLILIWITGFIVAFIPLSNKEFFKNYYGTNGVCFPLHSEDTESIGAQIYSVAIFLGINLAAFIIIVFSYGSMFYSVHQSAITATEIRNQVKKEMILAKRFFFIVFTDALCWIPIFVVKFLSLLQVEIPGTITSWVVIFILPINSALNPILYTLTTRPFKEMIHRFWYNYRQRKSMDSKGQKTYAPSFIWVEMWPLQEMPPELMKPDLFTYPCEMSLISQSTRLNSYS

[3] = target: T2, Relaxin-3 receptor 1 (Homo sapiens, UniProt Q9NSD7); assay: Negative allosteric modulation of human RXFP3 receptor expressed in CHO-K1 cells assessed as cAMP accumulation incubated for 30 mins in presence of forskolin by TR-FRET assay; type: functional, cell-based
T2 sequence (Q9NSD7 whole entry): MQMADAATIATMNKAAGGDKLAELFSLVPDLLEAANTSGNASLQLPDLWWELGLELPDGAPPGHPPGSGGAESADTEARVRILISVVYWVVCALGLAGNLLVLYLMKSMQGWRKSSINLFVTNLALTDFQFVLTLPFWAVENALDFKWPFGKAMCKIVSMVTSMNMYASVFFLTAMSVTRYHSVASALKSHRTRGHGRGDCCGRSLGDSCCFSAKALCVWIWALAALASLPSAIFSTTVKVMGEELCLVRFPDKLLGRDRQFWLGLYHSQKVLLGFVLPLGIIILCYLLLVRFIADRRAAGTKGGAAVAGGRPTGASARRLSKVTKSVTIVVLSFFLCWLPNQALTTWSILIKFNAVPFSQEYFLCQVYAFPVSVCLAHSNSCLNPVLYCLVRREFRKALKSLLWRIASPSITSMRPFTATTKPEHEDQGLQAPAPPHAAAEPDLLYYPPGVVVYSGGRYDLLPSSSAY

[4] = target: T2, Relaxin-3 receptor 1; assay: Negative allosteric modulation of human RXFP3 receptor expressed in CHO-K1 cell membrane assessed as inhibition of relaxin-3-induced stimulation of [35S]GTPgammaS binding followed by relaxin-3 addition and measured after 1 hr; type: functional, cell membranes
[5] = Apparent permeability compound across apical to basolateral side in MDCK-MDR1 cells at 10 uM incubated for 30 to 90 mins; type: ADME, cell-based, Canis lupus familiaris; details: dog
[6] = Tmax in female Wistar rat plasma at 10 mg/kg, ip administrated as single dose and measured 24 hrs post dose by LC-MS/MS analysis; type: ADME, organism-based; details: in vivo
[7] = Tmax in male Wistar rat plasma at 10 mg/kg, ip administrated as single dose and measured 24 hrs post dose by LC-MS/MS analysis; type: ADME, organism-based; details: in vivo
[8] = AUClast in male Wistar rat brain at 10 mg/kg, ip measured 24 hrs post dose by LC-MS/MS analysis; type: ADME, organism-based
[9] = Plasma protein binding in Wistar rat at 1 uM incubated for 6 hrs by LC-MS/MS analysis; type: ADME, cell-free
[10] = Cmax in male Wistar rat brain at 10 mg/kg, ip measured 24 hrs post dose by LC-MS/MS analysis; type: ADME, organism-based
[11] = Metabolic stability in rat liver microsomes assessed as clearance measured up to 45 mins by LC-MS/MS analysis; type: ADME, Microsome; details: 0.75 h
[12] = Apparent permeability of compound across basolateral to apical side in MDCK-MDR1 cells at 10 uM incubated for 30 to 90 mins; type: ADME, cell-based, Canis lupus familiaris; details: dog
[13] = Tmax in male Wistar rat brain at 10 mg/kg, ip measured 24 hrs post dose by LC-MS/MS analysis; type: ADME, organism-based; details: in vivo
[14] = AUClast in female Wistar rat plasma at 10 mg/kg, ip administrated as single dose and measured 24 hrs post dose by LC-MS/MS analysis; type: ADME, organism-based
[15] = Clearance in male Wistar rat plasma at 10 mg/kg, ip administrated as single dose and measured 24 hrs post dose by LC-MS/MS analysis; type: ADME, organism-based
[16] = Half life in female Wistar rat plasma at 10 mg/kg, ip administrated as single dose and measured 24 hrs post dose by LC-MS/MS analysis; type: ADME, organism-based; details: in vivo
[17] = AUClast in female Wistar rat brain at 10 mg/kg, ip measured 24 hrs post dose by LC-MS/MS analysis; type: ADME, organism-based
[18] = Cmax in male Wistar rat plasma at 10 mg/kg, ip administrated as single dose and measured 24 hrs post dose by LC-MS/MS analysis; type: ADME, organism-based; details: in vivo
[19] = Cmax in female Wistar rat plasma at 10 mg/kg, ip administrated as single dose and measured 24 hrs post dose by LC-MS/MS analysis; type: ADME, organism-based; details: in vivo
[20] = Cmax in female Wistar rat brain at 10 mg/kg, ip measured 24 hrs post dose by LC-MS/MS analysis; type: ADME, organism-based
[21] = Tmax in female Wistar rat brain at 10 mg/kg, ip measured 24 hrs post dose by LC-MS/MS analysis; type: ADME, organism-based; details: in vivo
[22] = Brain concentration in male Wistar rat at 10 mg/kg, ip measured after 24 hrs; type: ADME, organism-based; details: in vivo
[23] = AUClast in male Wistar rat plasma at 10 mg/kg, ip administrated as single dose and measured 24 hrs post dose by LC-MS/MS analysis; type: ADME, organism-based
[24] = Kinetic solubility of compound in PBS at pH 7.4 incubated under agitation for 2 hrs by LC-MS/MS analysis; type: physicochemical
[25] = Brain concentration in female Wistar rat at 10 mg/kg, ip measured after 24 hrs; type: ADME, organism-based; details: in vivo
[26] = Half life in male Wistar rat plasma at 10 mg/kg, ip administrated as single dose and measured 24 hrs post dose by LC-MS/MS analysis; type: ADME, organism-based; details: in vivo
[27] = Metabolic stability in rat liver microsomes assessed as half life measured up to 45 mins by LC-MS/MS analysis; type: ADME, Microsome
[28] = Clearance in female Wistar rat plasma at 10 mg/kg, ip administrated as single dose and measured 24 hrs post dose by LC-MS/MS analysis; type: ADME, organism-based
[29] = Efflux ratio of apparent permeability across basolateral to apical over apical to basolateral side in MDCK-MDR1 cells at 10 uM incubated for 30 to 90 mins; type: ADME, cell-based, Canis lupus familiaris; details: dog, time 30-90 min
[30] = mdck-mdr1, 10 µM, time 30-90 min

Chain of Relaxin-3 receptor 2 (Q8TDU9 whole entry): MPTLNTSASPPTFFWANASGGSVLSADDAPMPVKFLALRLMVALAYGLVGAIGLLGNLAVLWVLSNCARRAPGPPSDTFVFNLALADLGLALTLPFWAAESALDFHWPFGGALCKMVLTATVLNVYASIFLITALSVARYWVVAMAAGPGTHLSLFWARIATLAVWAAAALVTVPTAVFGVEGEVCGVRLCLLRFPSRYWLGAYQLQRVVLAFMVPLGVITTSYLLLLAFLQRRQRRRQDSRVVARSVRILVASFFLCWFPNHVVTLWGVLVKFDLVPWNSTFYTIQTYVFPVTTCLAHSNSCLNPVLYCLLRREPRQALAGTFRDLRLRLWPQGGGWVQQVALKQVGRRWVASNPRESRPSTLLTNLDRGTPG

Structure (SMILES): CNCCC(=O)Nc1ccc(-c2nc(-c3ccc(Cl)cc3)no2)cc1
IC50 [1]: 4.87 µM | IC50 [2]: 19.6 µM | IC50 [3]: 0.59 µM | IC50 [4]: 1.05 µM

Structure (SMILES): CNCCCN1CC(C(=O)Nc2ccc(-c3nc(-c4ccc(Cl)cc4)no3)cc2)CC1=O (stereo not given)
IC50 [4]: 1.18 µM

Structure (SMILES): O=C(Nc1ccc(-c2nc(-c3ccc(Cl)cc3)no2)cc1)C1CC(=O)N(Cc2cccnc2)C1 (stereo not given)
IC50 [4]: 2.63 µM

Structure (SMILES): CNCC(=O)Nc1ccc(-c2nc(-c3ccc(Cl)cc3)no2)cc1
IC50 [4]: 2.63 µM

Structure (SMILES): CNCCCC(=O)Nc1ccc(-c2nc(-c3ccc(Cl)cc3)no2)cc1
IC50 [4]: 2.09 µM

Structure (SMILES): CNCCN1CCC(C(=O)Nc2ccc(-c3nc(-c4ccc(Cl)cc4)no3)cc2)CC1
IC50 [1]: 14.3 µM | IC50 [2]: > 100 µM

Structure (SMILES): O=C(Nc1ccc(-c2nc(-c3ccc(Cl)cc3)no2)cc1)C1CC(=O)N(Cc2ccco2)C1 (stereo not given)
Papp A→B at 10 µM ([5]; MDCK-MDR1, time 30-90 min): 1.3 ×10⁻⁶ cm/s | CLH [11]: 132 µL/min/mg | Papp B→A at 10 µM ([12]; MDCK-MDR1, time 30-90 min): 1.3 ×10⁻⁶ cm/s | IC50 ([3]; cho-k1): 2.36 µM | solubility kinetic at 2 h ([24]; PBS, pH 7.4, read-out: Kinetic_solubility): < 1 µM | efflux ratio at 10 µM [29]: 1 | IC50 [4]: 3.02 µM | half-life ([27]; liver microsomes): 0.177 h

Continued, values first:

IC50 [4]: 0.71 µM
Structure (SMILES): O=C(Nc1ccc(-c2nc(-c3ccc(Cl)cc3)no2)cc1)C1CC(=O)N(CC2CCNCC2)C1 (stereo not given)

IC50 [4]: 1.45 µM
Structure (SMILES): NCCN1CC(C(=O)Nc2ccc(-c3nc(-c4ccc(Cl)cc4)no3)cc2)CC1=O (stereo not given)

IC50 [4]: 1.7 µM
Structure (SMILES): O=C(Nc1ccc(-c2nc(-c3ccc(Cl)cc3)no2)cc1)C1CC(=O)N(CC2CCNC2)C1 (racemic)

Papp [5, 30]: 1.1 10^-6 cm/s | Tmax [6]: 0.5 h | Tmax [7]: 0.5 h | AUC(0-t) at 24 h [8]: 3270 ng·h/mL | PPB [9]: 98% | Cmax [10]: 185 ng/mL | CLH [11]: 6.8 µL/min/mg | Papp [12, 30]: 3.1 10^-6 cm/s | Tmax [13]: 1 h | AUC(0-t) at 24 h [14]: 8130 ng·h/mL | CL/F [15]: 18 mL/min/kg | t1/2 [16]: 10 h | IC50 [1]: > 100 µM | AUC(0-t) at 24 h [17]: 1930 ng·h/mL | Cmax [18]: 2121 ng/mL | Cmax [19]: 2117 ng/mL | IC50 [2]: > 100 µM | Cmax [20]: 157 ng/mL | Tmax [21]: 2 h | Drug uptake [22]: Active | AUC(0-t) at 24 h [23]: 7370 ng·h/mL | Kinetic_solubility ([24]; buffer, pH 7.4, 2 h): 10.1 µM | Drug uptake [25]: Active | t1/2 [26]: 12 h | t1/2 ([27]; microsomes, 0.75 h): 3.42 h | CL/F [28]: 18 mL/min/kg
Structure (SMILES): O=C(Nc1ccc(-c2nc(-c3ccc(Cl)cc3)no2)cc1)[C@@H]1CC(=O)N(C[C@@H]2CCCNC2)C1

IC50 [1]: 34.3 µM | IC50 [2]: > 100 µM
Structure (SMILES): CNCCN1CC(C(=O)Nc2ccc(-c3nc(-c4ccc(Cl)cc4)no3)cc2)CC1=O (stereo not given)

IC50 [4]: 0.96 µM
Structure (SMILES): O=C(Nc1ccc(-c2nc(-c3ccc(Cl)cc3)no2)cc1)C1CC(=O)N(CC2CCCCN2)C1 (racemic)

— ChEMBL document CHEMBL6109135, “Development of Diphenyl-1,2,4-Oxadiazole Analogues as Allosteric Modulators of the RXFP3 Receptor: Evaluation of Importance of the N-Substituted-2-Pyrrolidone Moiety in RLX-33” (J Med Chem, 2025)
